Assay [1] has as its system Mycobacterium marinum (Mm) in infection of Dictyostelium discoideum (Mm-inf). Briefly: Anti-infective assay, growth of Mm during infection of Dd (Mm-inf, luminescence). Format: cell-based. The note with it: for IC50: 72 h; for activity at 20 µM: vehicle = 1, baseline = 0, hit cut-off <0.5; for pro-infective effect on Mm-inf (in words): between 0.4 and 3.3 μM.
Assay [2] has as its system Mycobacterium marinum in broth (Mm-broth). In words: Antibacterial assay, growth of Mm in broth (Mm-broth, luminescence). Format: cell-based. To be noted: for IC50 / MIC: Mycobacterium marinum; for IC50: read-out: IC50 Mm-broth; for activity on Mm-broth (in words): at respective maximal tested concentration; for activity on Mm in broth (in words): screen at 20 μM or dose-response curve; for normalized residual growth of Mm-broth: 20 μM, vehicle = 1, baseline = 0.

For assay [3], the system named is Dictyostelium discoideum (Dd-inf). In words: microbe, parasite or virus in culture. Format: cell-based. To be noted: for normalized residual growth of Dd-inf: 20 μM, vehicle = 1, baseline = 0; for IC50: Dictyostelium discoideum, 72 h, read-out: IC50 Dd-inf (Dd growth).
Another assay concerns Dd Ax2(ka) cells. Briefly: Anti-infective assay with high-content microscopy, area of uninfected and infected Dd. To be noted: 20, 10, 2.5 μM, up to 48 h.
Another assay has as its system intracellular Mm. In words: Anti-infective assay with high-content microscopy, area of intracellular Mm. The note with it: 20, 10, 2.5 μM, up to 48 h.
Another assay has as its system Mm. To be noted: MIC90 from clinical isolates, cited from earlier work.
[4] abbreviates: read-out: IC50 Mm-inf, 72 h, AUC of luminescence normalized to vehicle, 4PL regression.
Setting [5] is: at respective maximal tested concentration.
[6] abbreviates: 20 μM, read-out: normalized residual growth of Mm-inf.
[7] abbreviates: AUC of luminescence normalized to vehicle, 4PL regression, read-out: IC50 Mm-inf.
[8] abbreviates: read-out: normalized residual growth of Mm-inf, 20 μM.
Where [9] appears, read: converted from μM, read-out: MIC in infection.
The mark [10] stands for this setting: lowest concentration with normalized residual growth plus one SD ≤0, 72 h, read-out: MIC Mm-inf.
The mark [11] stands for this setting: 72 h, 7H9 broth, 32°C, read-out: MIC Mm-broth.
Setting [12] is: ref Woods and Clinical and Laboratory Standards Institute, 2011.

In general, IC50 refers to the concentration needed to halve the response being measured. A word on the MIC: it is the lowest concentration found to suppress growth.

“Also recorded” adds a separate entry of the source. Where two headings read alike, the source gives them in different places.

Description for Dd Ax2(ka) cells: (§1) To monitor both the host and pathogen during the course of infection in a quantitative manner, Dd Ax2(ka) cells expressing mCherry knocked-in at the act5 locus ([Paschke et al., 2019]) were infected as described above with Mm WT stably expressing GFP (Msp:12-GFP). As described above, the day before the experiment, 10^7 amoebae were plated in a 10 cm Petri dish. On the day of the experiment, infection was performed, as described above, in HL5-C at MOI 25 by spinoculation. This was followed by eight washes in HL5-C to clear a maximum of non-internalized bacteria. The infected amoebae were detached mechanically and resuspended in HL5-C with 0.75 U/mL penicillin and 0.75 μg/mL of streptomycin (Gibco). Compounds were diluted in HL5-C to a 10x stock of the final assay concentration and pre-plated in 20 μL into the respective wells of a 96-well μ-plate (iBIDI 96-well μ-plate, 89,626). Subsequently, 7,500 cells per well were added in a volume of 180 μL. Every condition has been plated in at least three technical replicates and at least three biological replicates. The 96-well plate was sealed with a gas permeable seal (4titude, 4ti-0516/96) and centrifuged briefly.
(§2) Microscopy images were acquired at 25°C with a 40X plan Apo objective at selected time points over 48 h on the ImageXpress Micro C® automated microscope (Molecular Devices) in wide field mode. Focus was obtained automatically by autofocusing on the well bottom and plate bottom, at every well and every time point. In a grid of 4 × 5, 20 images per well, corresponding to a range of 500–6,000 cells, have been taken using the Texas-Red channel for Dd expressing mCherry and FITC channel for Mm expressing GFP in each experiment. Image analysis was performed using MetaXpress Custom Module editor software. Objects were effectively segmented by size and intensity. More precisely, amoebae were segmented using a “find blob module” using the Texas-Red channel. To segment the bacteria, the FITC image was first subjected to a light deconvolution with a top hat filter and then segmented using a “find blob module.” Intracellular bacteria and infected amoebae were determined by associating the mask of the amoebae and the bacteria. Several parameters such as intracellular and extracellular bacterial area sum, amoebae area sum, averaged and integrated fluorescence intensity and feature counts of bacteria and amoeba were extracted. The growth curves for the area sum of uninfected amoebae, infected amoebae and intracellular bacteria of independent biological replicates were averaged and plotted using GraphPad Prism (Version 8.0.1).
(§3) Both uninfected Dd and Dd infected with Mm were treated with 20, 10 or 2.5 μM of 17 or 19 and the infection was monitored by collecting microscopy images at five time points for up to 48 h.
Description for intracellular Mm: as §1, §2, §3

Regarding `COc1nc2ccc(Br)cc2cc1[C@@H](c1ccccc1)[C@@](O)(CCN(C)C)c1cccc2ccccc12` [bedaquiline], the IC50 in assay [1] (setting [4]) is 4 µM; in assay [2] (72 h) it was 1.6 µM. Further, the “activity on Mm-inf (in words)” value in assay [1] (setting [5]) is listed as “sterilizing activity”. Moreover, in assay [2] (72 h, read-out: MIC Mm-broth), the MIC came out at 3.3 µM. In assay [2], the “activity on Mm-broth (in words)” value is recorded as “sterilizing activity”.
Take `Oc1ccc(/C=C/c2cc(O)cc(O)c2)cc1` [compound 1, resveratrol]: in assay [1] (dose-response curve), the “activity on Mm-inf (in words)” value is recorded as “lack of activity”.
For `COc1cc(/C=C/c2ccc(O)cc2)cc(OC)c1` [compound 2, pterostilbene], in assay [1] (setting [6]), the activity at 20 µM was found to be 28%. Further, the values for the IC50 in assay [1] (setting [7]) and in assay [3] (dose-response curve) were 19.8 µM and 11.1 µM, respectively. In assay [1] (dose-response curve), the “activity on Mm-inf (in words)” value is recorded as “validated anti-infectives without antibiotic properties”. Also, in assay [2], the “activity on Mm in broth (in words)” value is “inactive on Mm in broth”. Also, the “normalized residual growth of Dd-inf” value in assay [3] was “–0.16”.
With `COc1cc(O)cc(/C=C/c2ccc(O)cc2)c1` [compound 3, pinostilbene], in assay [1] (dose-response curve), the “activity on Mm-inf (in words)” value is given as “active on Mm-inf, at high concentrations (>20 μM)”.
In the case of `COc1cc(/C=C/c2cc(O)cc(O)c2)ccc1O` [compound 4, isorhapontigenin], in assay [1] (dose-response curve), the “activity on Mm-inf (in words)” value is reported as “lack of activity”.
Regarding `Oc1ccc(C2Oc3ccc(C=Cc4cc(O)cc(O)c4)cc3C2c2cc(O)cc(O)c2)cc1` (stereo not drawn) [compound 11, trans-δ-viniferin], the activity at 20 µM in assay [1] (setting [6]) was 110%. Moreover, the “normalized residual growth of Mm-broth” value in assay [2] came out at 1.
For the molecule `COc1cc(C=Cc2ccc3c(c2)C(c2cc(O)cc(O)c2)C(c2ccc(O)cc2)O3)cc(OC)c1` (stereo not drawn) [compound 19], the “growth of infected Dd (segmented area, in words)” value in the assay with Dd Ax2(ka) cells is on record as “almost completely inhibited”. The “growth of uninfected Dd (segmented area, in words)” value in the assay on Dd Ax2(ka) cells is on record as “significantly reduced”. Besides, the IC50 in assay [1] (setting [7]) stood at 9 µM; in assay [3] (dose-response curve) it was 12.1 µM. Further, the results for the “activity on Mm-inf (in words)” value in assay [1] (at 20 μM) and in assay [1] (dose-response curve) were “passed again the 0.5 cut-off” and “dose-dependent activity; also recorded: validated anti-infectives without antibiotic properties”, respectively. In addition, the activity at 20 µM in assay [1] (setting [8]) was -32%. The “activity on Mm in broth (in words)” value in assay [2] is “no activity on Mm in broth; also recorded: without antibiotic activity; also recorded: did not show any growth inhibition”. Further, the “growth of intracellular Mm (segmented area, in words)” value in the assay on intracellular Mm is recorded as “almost completely inhibited”. In addition, the “normalized residual growth of Dd-inf” value in assay [3] is listed as “–0.22”. Also, the “lowest measured value of Dd-inf (normalized residual growth)” value (shortened to “lowest … (normalized residual growth)”) in assay [3] (dose-response curve) is −0.40.
For `COc1cc(C=Cc2ccc3c(c2)C(c2cc(OC)cc(OC)c2)C(c2ccc(O)cc2)O3)cc(OC)c1` (stereo not drawn) [compound 21], the activity at 20 µM in assay [1] (setting [6]) was found to be 140%. In assay [2], the “normalized residual growth of Mm-broth” value is reported as 1.
On to `Oc1ccc([C@H]2Oc3ccc(/C=C\c4cc(O)cc(O)c4)cc3[C@@H]2c2cc(O)cc(O)c2)cc1` [compound 55], for which the “activity on Mm-inf (in words)” value in assay [1] (at 20 μM) was “inactive”.
As for `COc1cc(OC)cc([C@H]2c3cc(/C=C\c4cc(O)cc(O)c4)ccc3O[C@@H]2c2ccc(O)cc2)c1` [compound 56], in assay [1] (setting [4]), the IC50 came out at 19.7 µM.
Same read-out and setting: next, `COc1cc(/C=C\c2ccc3c(c2)[C@H](c2cc(O)cc(O)c2)[C@@H](c2ccc(O)cc2)O3)cc(OC)c1` [compound 57]: 9.8 µM.
Take `COc1cc(/C=C\c2ccc3c(c2)[C@H](c2cc(OC)cc(OC)c2)[C@@H](c2ccc(O)cc2)O3)cc(OC)c1` [compound 58]: in assay [1] (at 20 μM), the “activity on Mm-inf (in words)” value is “inactive”.
Consider `COc1ccc([C@H]2Oc3ccc(/C=C/c4cc(O)cc(O)c4)cc3[C@@H]2c2cc(O)cc(OC)c2)cc1` [compound 62], for which the IC50 in assay [1] (setting [7]) is 13.4 µM. In assay [3] (dose-response curve), the “lowest … (normalized residual growth)” value came out at 0.42.
On to `COc1ccc([C@H]2Oc3ccc(/C=C/c4cc(O)cc(OC)c4)cc3[C@@H]2c2cc(O)cc(O)c2)cc1` [compound 63], for which the “growth of uninfected Dd (segmented area, in words)” value in the assay with Dd Ax2(ka) cells is “only a slight growth inhibition at 20 μM”. Also, the IC50 in assay [1] (setting [7]) amounted to 8.6 µM. The “growth of intracellular Mm (segmented area, in words)” value in the assay with intracellular Mm was “infection was well controlled”. Also, in assay [3] (dose-response curve), the “lowest … (normalized residual growth)” value is 0.8.
In the same order, the values of `COc1cc(O)cc(/C=C/c2ccc3c(c2)[C@H](c2cc(O)cc(OC)c2)[C@@H](c2ccc(O)cc2)O3)c1` [compound 64] are “only a slight growth inhibition at 20 μM”, 8 µM, “infection was well controlled” and 0.62.
As to `COc1cc([C@H]2Oc3c(OC)cc(/C=C/c4cc(O)cc(O)c4)cc3[C@@H]2c2cc(O)cc(O)c2)ccc1O` [compound 65], in assay [1] (at 20 μM), the “activity on Mm-inf (in words)” value was “pro-infective activity”.
Take `Oc1ccc(-c2oc3ccc(/C=C/c4cc(O)cc(O)c4)cc3c2-c2cc(O)cc(O)c2)cc1` [compound 66]: the IC50 turned out to be 29.7 µM in assay [1] (setting [4]) and 26.2 µM in assay [3]. Moreover, the activity at 20 µM in assay [1] (setting [8]) turned out to be 55%.
In the case of `COc1cc(OC)cc(-c2c(-c3ccc(O)cc3)oc3ccc(/C=C/c4cc(O)cc(O)c4)cc23)c1` [compound 67], the IC50 in assay [1] (setting [4]) came out at 19.6 µM.
As to `COc1cc(/C=C/c2ccc3oc(-c4ccc(O)cc4)c(-c4cc(O)cc(O)c4)c3c2)cc(OC)c1` [compound 68], the IC50 in assay [1] (setting [4]) stood at 20.1 µM.
Consider `COc1cc(/C=C/c2ccc3oc(-c4ccc(O)cc4)c(-c4cc(OC)cc(OC)c4)c3c2)cc(OC)c1` [compound 69], for which the “activity on Mm-inf (in words)” value in assay [1] (dose-response curve) was “remained inactive”.
For the molecule `CC[C@@H](CO)NCCN[C@@H](CC)CO` [ethambutol, reference compound], the IC50 is 7 µM in assay [1] (setting [4]) and 1 µM in assay [2] (72 h). In assay [1] (setting [5]), the “activity on Mm-inf (in words)” value is listed as “sterilizing activity”. The MIC came to 6.1 µg/mL in assay [1] (setting [9]), 30 µM in assay [1] (setting [10]) and 3.3 µM in assay [2] (setting [11]). The “activity on Mm-broth (in words)” value in assay [2] was “sterilizing activity”. For the same molecule, the “breakpoint of antibacterial susceptibility for Mm” value (“breakpoint” for short) in the assay on Mm (setting [12]) is 4 µg/mL.
In the case of `CCc1cc(C(N)=S)ccn1` [ethionamide], the IC50 in assay [1] (setting [4]) came out at 4 µM; in assay [2] (72 h) it was 0.8 µM. Further, in assay [1] (setting [5]), the “activity on Mm-inf (in words)” value is “sterilizing activity”. Besides, in assay [2] (72 h, read-out: MIC Mm-broth), the MIC is 3.3 µM. Moreover, the “activity on Mm-broth (in words)” value in assay [2] was “sterilizing activity”. In addition, the “breakpoint” value in the assay on Mm (ref Lorian, 2005) was 5 µg/mL.
Turning to `NNC(=O)c1ccncc1` [isoniazid, reference compound], the IC50 in assay [1] (setting [4]) was found to be 11 µM; in assay [2] (72 h), 10 µM. The “activity on Mm-inf (in words)” value in assay [1] (setting [5]) is “sterilizing activity”. Besides, the “pro-infective effect on Mm-inf (in words)” value in assay [1] is given as “slight pro-infective effect”. Also, the MIC is 4.1 µg/mL in assay [1] (setting [9]); 30 µM in assay [1] (setting [10]); 30 µM in assay [2] (setting [11]); 4.1 µg/mL in assay [2] (converted from μM, read-out: MIC in broth). The “activity on Mm-broth (in words)” value in assay [2] is given as “sterilizing activity”.
Take `NC(=O)c1cnccn1` [pyrazinamide, reference compound]: in assay [1], the “pro-infective effect on Mm-inf (in words)” value is recorded as “slight pro-infective effect”. The “activity on Mm-inf (in words)” value in assay [1] (dose-response curve) is given as “lack of activity; also recorded: no activity against Mm”. Besides, the “activity on Mm in broth (in words)” value in assay [2] is “no activity against Mm”.
`CO[C@H]1/C=C/O[C@@]2(C)Oc3c(C)c(O)c4c(c3C2=O)C2=NC3(CCN(CC(C)C)CC3)NC2=C(NC(=O)/C(C)=C\C=C\[C@H](C)[C@H](O)[C@@H](C)[C@@H](O)[C@@H](C)[C@H](OC(C)=O)[C@@H]1C)C4=O` [rifabutin]: the results for the IC50 in assay [1] (setting [4]) and in assay [2] (72 h) were 0.2 µM and 0.03 µM, respectively. Moreover, the “activity on Mm-inf (in words)” value in assay [1] (setting [5]) is “sterilizing activity”. The minimum inhibitory concentration (MIC) in assay [2] (72 h, read-out: MIC Mm-broth) stood at 0.01 µM. Besides, in assay [2], the “activity on Mm-broth (in words)” value is “sterilizing activity”. The “activity on Dd growth, Dd-inf (in words)” value in assay [3] (dose-response curve) was “affected amoebae growth slightly at the highest tested concentrations”. Also, the “breakpoint” value with Mm (setting [12]) was 2 µg/mL.
Regarding `CO[C@H]1/C=C/O[C@@]2(C)Oc3c(C)c(O)c4c(O)c(c(/C=N/N5CCN(C)CC5)c(O)c4c3C2=O)NC(=O)/C(C)=C\C=C\[C@H](C)[C@H](O)[C@@H](C)[C@@H](O)[C@@H](C)[C@H](OC(C)=O)[C@@H]1C` [rifampicin, reference compound], the IC50 in assay [1] (setting [4]) turned out to be 5 µM; in assay [2] (72 h), 0.1 µM. In assay [1] (setting [5]), the “activity on Mm-inf (in words)” value was “sterilizing activity”. In addition, the MIC came out at 10 µM in assay [1] (setting [10]) and 1.1 µM in assay [2] (setting [11]). Also, the “activity on Mm-broth (in words)” value in assay [2] is given as “sterilizing activity”. In assay [3] (dose-response curve), the “activity on Dd growth, Dd-inf (in words)” value is given as “affected amoebae growth slightly at the highest tested concentrations”.

(Values after PMC11443511, “Discovery of anti-infective compounds against Mycobacterium marinum after biotransformation of simple natural stilbenes by a fungal secretome” (Frontiers in Microbiology, 2024).)
